The values that follow are results of earlier work, collected in patent US20110305654A1, “ANHYDROUS PETROLEUM JELLY/ELASTOMER-FREE DEPIGMENTING COMPOSITIONS COMPRISING A SOLUBILIZED PHENOLIC COMPOUND” (Galderma Research & Development, priority 2008, published 2011).

Like-named read-outs stand apart in the source and are kept apart here.

Take `Oc1ccc(O)cc1` [hydroquinone]: the Irritation result by setting is: (10% concentrations) “relatively high”; (concentration of 2%) “virtually nonexistent”; (preparations with a 5% dose) “reduces greatly”.
